How the values were obtained:
[1] = Titration (66% DMF); format: physicochemical
Description: Titration (66% DMF): pK=7.4, Apparent Mol. Wt.=463 (457 Calculated) Mass Spectral Analysis (FAB) m/z: 458 [(M+1)^+]

melting point | SMILES | pK [1]
– | NC(=O)C(O)c1ccc(Oc2cccc(-c3ccccc3)c2)cc1OCCCCC(=O)[O-].[Na+] (racemic) [Example 7, Sodium(RS)-2-(4-carboxybutoxy)-4-(3-phenylphenoxy)phenyl-2-hydroxyacetamide] | 7.4
170 to 171 °C | NC(=O)Cc1ccc(Oc2ccc(F)cc2)cc1 [Example 1, 4-(4-fluorophenoxy)phenylacetamide] | –
161 to 163 °C | NC(=O)Cc1ccc(Oc2ccccc2)cc1 [Example 2, 4-phenoxyphenylacetamide] | –
115 to 117 °C | NC(=O)Cc1cccc(Oc2ccccc2)c1 [Example 3, 3-phenoxyphenylacetamide] | –
